Experimental data as given in ChEMBL document CHEMBL1132473 (J Med Chem, 1999).

target: 4-aminobutyrate aminotransferase, mitochondrial (Sus scrofa, UniProt P80147); test: Compound was tested for the inhibition of Gamma-amino-N-butyrate transaminase (GABA-AT)
Sequence (P80147 whole entry): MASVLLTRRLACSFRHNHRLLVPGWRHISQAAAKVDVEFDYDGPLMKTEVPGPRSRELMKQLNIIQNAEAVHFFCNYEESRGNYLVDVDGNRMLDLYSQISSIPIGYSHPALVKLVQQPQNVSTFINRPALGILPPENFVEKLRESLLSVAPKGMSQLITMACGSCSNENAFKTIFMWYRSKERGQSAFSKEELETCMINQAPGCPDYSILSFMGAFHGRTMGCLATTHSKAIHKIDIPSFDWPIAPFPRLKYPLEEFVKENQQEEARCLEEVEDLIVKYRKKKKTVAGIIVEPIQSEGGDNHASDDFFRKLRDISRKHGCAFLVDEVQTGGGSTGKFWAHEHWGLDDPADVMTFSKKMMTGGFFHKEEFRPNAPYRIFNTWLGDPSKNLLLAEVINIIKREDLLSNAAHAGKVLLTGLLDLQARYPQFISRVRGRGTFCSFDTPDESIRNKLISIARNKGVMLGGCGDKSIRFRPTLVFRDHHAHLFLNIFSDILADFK

First: N[C@@H]1C=C[C@H](C(=O)O)C1
Second: NC1C=CC(C(=O)O)C1 (racemic)
The Ki of the first is 12-fold lower: 52 µM for the first, 600 µM for the second.

Compared with N[C@H]1C=C[C@@H](C(=O)O)C1, N[C@@H]1C=C[C@@H](C(=O)O)C1 is 14-fold higher in Ki: 2700 µM for the first, 38000 µM for the second. The first binds more tightly here.

Compared with N[C@@H]1CC=C(C(=O)O)C1, N[C@H]1CC=C(C(=O)O)C1 is 60-fold higher in Ki: 1200 µM for the first, 72000 µM for the second.
